Here are results for six compounds from patent publication US20240092758A1, “IMIDAZOLO INDAZOLE COMPOUNDS AS JAK INHIBITORS” (Theravance Biopharma R&D IP, LLC, priority 2021, published 2024).

Data set [1] is described as follows: Pharmacokinetics in plasma and lung in mouse after oral aspiration administration. It counts as in vivo. The settings on record: male CD1 mice; for Lung Tissue AUC(0-24) / AUC(0-t): 0.2 mg/mL, two 25 μL increments; for Lung Tissue:Plasma AUC ratio: lung AUC to plasma AUC; for AUC(0-t): mouse, inhaled or intranasal, 0.01 mg/mouse, plasma, read-out: Plasma AUC(0-24). How it is done: Plasma and lung concentrations of test compounds were quantified and pharmacokinetic parameters were calculated in the following manner. Male CD1 mice from Charles River Laboratories were used in the pharmacokinetic studies. Test compounds were individually formulated in 20% propylene glycol in pH 4 citrate buffer at a concentration of 0.2 mg/mL. Test compounds were administered in two, 25 μL increments introduced into the trachea of each mouse by oral aspiration using a calibrated pipette once the animal was anesthetized using isoflurane. Blood samples were collected as terminal collections via cardiac puncture at 0.167, 1, 4, 8, and 24 hr post-dosing. Following […] with CO2, a direct cardiac puncture was performed while avoiding puncturing the lung and blood was immediately transferred into K2EDTA tubes and placed on wet ice. Blood samples were centrifuged (Eppendorf centrifuge, 5804R) for 4 minutes at approximately 12,000 rpm at 4° C. to collect plasma. Intact lungs were also excised from these mice using the same timepoints (0.167, 1, 4, 8, and 24 hr). Lungs were washed with sterile water to remove any blood residue and were patted dry, weighed, and homogenized in 0.1% formic acid in water at a dilution of 1:3 (lung:water, weight/volume). Plasma and lung concentrations of test compounds were determined by LC-MS/MS analysis against analytical standards constructed into a standard curve in the test matrix. The pharmacokinetic parameters of test compounds were determined by non-compartmental analysis. For concentrations below the limit of quantification, zero was used for mean calculations. Mean values were not reported if more than 50% of the samples were below the limit of quantification at a timepoint, or if more than 50% of a calculated pharmacokinetic parameter was not reportable. The area under the concentration-time curve extrapolated to infinity (AUC(0-inf)) was calculated as follows: AUC(0-inf)=AUC(0-t)+Clast/k, where AUC(0-t) is the area under the concentration-time curve from the time of dosing to the last measurable concentration calculated by the linear trapezoidal rule, Clast is the last measurable concentration, and k is the first order rate constant associated with the terminal elimination phase, estimated by linear regression of time versus log concentration. The lung-to-plasma AUC ratio was determined as the ratio of the lung AUC(0-inf) in μg*hr/g to the plasma AUC(0-inf) in μg*hr/mL.

The subject of data set [2] is IL-13 induced STAT6 phosphorylation in BEAS-2B human lung epithelial cells. The data set is described as follows: Cellular JAKI potency assay (BEAS-2B). It counts as cell-based. The conditions noted are these: Homo sapiens, BEAS-2B, BEAS-2B cells, read-out: BEAS2B pIC50 (converted). Summed up: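 BEAS-2B cells were preincubated with compound (0.1% DMSO) in HBSS/HEPES/BSA for 1 h at 37 °C, then stimulated with IL-13 (80 ng/mL before addition) for 30 min. After lysis, pSTAT6 (Tyr641) was quantified by AlphaLISA SureFire; IC50 from a 4-parameter fit of percent inhibition, reported as pIC50.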

The target in data set [3] is JAK2 (Homo sapiens (Human), UniProt O60674). Kind of data set: Biochemical JAK kinase assay (LanthaScreen), JAK2. The conditions noted are these: for Ki: read-out: JAK2 pKi (converted). Summed up:
(§1)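 LanthaScreen format: phospho-STAT1 (pTyr701) detected with 2 nM Tb antibody after 10 mM EDTA quench. Kinase step used Km-level ATP and 200 nM STAT1 peptide, 1 h at ambient after 1 h pre-incubation. Inhibition fitted to IC50, reported as pKi.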
On the technique in general: TR-FRET usually uses a lanthanide donor and a delayed reading to cut background.

In data set [4] the target is JAK1 (Homo sapiens (Human), UniProt P23458). The data set is described as follows: Biochemical JAK kinase assay (LanthaScreen), JAK1. The settings on record: for Ki: read-out: JAK1 pKi (converted). Summed up:
as §1

Data set [5] has as its target TYK2 (Homo sapiens (Human), UniProt P29597). Kind of data set: Biochemical JAK kinase assay (LanthaScreen), Tyk2. The settings on record: read-out: Tyk2 pKi (converted). The method, boiled down: as §1
Data set [6] deals with JAK3 (Homo sapiens (Human), UniProt P52333). Kind of data set: Biochemical JAK kinase assay (LanthaScreen), JAK3. The settings on record: read-out: JAK3 pKi (converted). Summed up:
as §1

Sequence of JAK2 (O60674 whole entry): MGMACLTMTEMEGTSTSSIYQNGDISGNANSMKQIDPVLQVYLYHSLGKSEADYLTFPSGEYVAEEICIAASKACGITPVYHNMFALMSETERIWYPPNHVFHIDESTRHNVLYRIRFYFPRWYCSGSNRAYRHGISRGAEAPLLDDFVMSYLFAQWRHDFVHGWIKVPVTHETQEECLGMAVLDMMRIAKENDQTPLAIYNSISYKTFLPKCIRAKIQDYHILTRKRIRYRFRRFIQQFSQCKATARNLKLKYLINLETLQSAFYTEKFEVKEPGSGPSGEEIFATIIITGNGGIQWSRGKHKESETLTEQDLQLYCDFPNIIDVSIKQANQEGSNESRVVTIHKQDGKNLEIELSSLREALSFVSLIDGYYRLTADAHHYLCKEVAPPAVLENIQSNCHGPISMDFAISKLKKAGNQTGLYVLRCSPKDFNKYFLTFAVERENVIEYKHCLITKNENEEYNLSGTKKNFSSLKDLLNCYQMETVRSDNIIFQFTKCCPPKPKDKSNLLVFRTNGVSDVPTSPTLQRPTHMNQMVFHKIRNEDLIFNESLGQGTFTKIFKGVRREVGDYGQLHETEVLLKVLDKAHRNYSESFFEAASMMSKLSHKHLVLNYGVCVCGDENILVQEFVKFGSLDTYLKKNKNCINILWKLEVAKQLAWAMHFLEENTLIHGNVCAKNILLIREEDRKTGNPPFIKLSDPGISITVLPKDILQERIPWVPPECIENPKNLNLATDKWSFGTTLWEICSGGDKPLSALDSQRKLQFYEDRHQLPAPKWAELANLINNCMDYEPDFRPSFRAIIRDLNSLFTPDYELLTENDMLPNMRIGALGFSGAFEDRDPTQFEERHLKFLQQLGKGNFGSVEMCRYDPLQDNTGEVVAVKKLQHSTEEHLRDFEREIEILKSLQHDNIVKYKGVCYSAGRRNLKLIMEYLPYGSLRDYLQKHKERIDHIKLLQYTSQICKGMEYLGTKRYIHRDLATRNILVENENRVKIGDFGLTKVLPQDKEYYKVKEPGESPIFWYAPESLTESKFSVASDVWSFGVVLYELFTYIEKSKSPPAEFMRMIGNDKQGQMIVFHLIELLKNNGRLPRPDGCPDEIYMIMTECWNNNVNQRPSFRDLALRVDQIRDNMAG
Sequence of TYK2 (P29597 whole entry): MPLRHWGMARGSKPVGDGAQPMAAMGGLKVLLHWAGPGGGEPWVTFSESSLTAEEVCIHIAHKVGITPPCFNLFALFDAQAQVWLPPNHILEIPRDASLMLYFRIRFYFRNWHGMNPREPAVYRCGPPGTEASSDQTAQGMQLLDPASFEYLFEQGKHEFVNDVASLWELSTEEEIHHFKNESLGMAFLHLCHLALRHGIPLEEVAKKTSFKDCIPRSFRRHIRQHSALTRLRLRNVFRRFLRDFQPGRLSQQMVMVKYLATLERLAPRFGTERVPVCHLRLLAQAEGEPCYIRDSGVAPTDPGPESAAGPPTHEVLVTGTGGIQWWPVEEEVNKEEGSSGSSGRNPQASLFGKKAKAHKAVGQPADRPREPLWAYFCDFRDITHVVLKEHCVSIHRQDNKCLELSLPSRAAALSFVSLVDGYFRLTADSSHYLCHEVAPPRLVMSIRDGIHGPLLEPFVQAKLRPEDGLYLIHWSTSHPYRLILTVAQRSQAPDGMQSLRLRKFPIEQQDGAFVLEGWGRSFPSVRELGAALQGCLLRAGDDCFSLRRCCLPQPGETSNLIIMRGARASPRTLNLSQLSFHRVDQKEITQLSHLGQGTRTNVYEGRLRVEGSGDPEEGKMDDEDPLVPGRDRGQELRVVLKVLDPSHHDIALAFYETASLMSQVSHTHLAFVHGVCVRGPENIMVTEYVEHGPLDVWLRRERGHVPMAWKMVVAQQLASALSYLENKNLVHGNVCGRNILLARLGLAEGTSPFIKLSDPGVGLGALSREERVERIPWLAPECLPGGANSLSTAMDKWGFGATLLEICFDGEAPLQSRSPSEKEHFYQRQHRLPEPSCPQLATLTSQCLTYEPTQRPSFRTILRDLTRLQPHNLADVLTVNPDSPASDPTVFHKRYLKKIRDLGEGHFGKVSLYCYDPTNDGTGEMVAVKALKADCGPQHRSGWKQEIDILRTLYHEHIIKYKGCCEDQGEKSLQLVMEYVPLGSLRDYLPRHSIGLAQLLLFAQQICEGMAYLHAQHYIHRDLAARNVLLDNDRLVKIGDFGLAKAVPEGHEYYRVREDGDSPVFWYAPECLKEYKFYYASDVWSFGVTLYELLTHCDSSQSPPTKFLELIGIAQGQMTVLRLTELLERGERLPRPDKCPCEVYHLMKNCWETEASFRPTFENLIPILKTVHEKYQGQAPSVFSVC
Sequence of JAK3 (P52333 whole entry): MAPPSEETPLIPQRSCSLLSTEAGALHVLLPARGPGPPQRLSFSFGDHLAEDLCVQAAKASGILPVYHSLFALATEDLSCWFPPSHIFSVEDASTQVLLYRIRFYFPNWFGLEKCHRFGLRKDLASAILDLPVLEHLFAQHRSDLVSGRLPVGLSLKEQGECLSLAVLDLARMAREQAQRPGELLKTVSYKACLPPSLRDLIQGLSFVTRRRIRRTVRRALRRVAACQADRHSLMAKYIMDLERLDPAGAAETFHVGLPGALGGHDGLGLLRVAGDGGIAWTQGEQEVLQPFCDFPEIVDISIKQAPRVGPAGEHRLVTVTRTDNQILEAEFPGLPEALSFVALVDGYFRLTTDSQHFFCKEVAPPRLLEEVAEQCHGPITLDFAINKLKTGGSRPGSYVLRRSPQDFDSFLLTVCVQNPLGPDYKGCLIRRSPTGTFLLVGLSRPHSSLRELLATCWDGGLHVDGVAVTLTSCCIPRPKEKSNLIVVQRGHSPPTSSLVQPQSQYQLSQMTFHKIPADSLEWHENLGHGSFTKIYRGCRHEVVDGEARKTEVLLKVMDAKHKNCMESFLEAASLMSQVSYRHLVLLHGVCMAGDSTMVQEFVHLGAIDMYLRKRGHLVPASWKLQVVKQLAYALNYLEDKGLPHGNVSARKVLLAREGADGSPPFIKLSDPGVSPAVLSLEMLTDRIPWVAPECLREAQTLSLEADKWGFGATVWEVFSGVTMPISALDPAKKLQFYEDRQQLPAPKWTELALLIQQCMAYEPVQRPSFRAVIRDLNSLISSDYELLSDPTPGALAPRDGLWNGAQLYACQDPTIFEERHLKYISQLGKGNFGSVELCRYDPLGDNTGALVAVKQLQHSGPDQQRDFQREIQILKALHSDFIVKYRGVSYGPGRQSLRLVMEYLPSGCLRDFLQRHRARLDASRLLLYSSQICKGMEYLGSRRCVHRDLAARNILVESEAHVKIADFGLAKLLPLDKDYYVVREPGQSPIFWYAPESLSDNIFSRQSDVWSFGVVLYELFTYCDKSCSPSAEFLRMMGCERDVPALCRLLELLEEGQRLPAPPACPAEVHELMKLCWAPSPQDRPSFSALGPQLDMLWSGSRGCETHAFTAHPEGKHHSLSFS
Sequence of JAK1 (P23458 whole entry): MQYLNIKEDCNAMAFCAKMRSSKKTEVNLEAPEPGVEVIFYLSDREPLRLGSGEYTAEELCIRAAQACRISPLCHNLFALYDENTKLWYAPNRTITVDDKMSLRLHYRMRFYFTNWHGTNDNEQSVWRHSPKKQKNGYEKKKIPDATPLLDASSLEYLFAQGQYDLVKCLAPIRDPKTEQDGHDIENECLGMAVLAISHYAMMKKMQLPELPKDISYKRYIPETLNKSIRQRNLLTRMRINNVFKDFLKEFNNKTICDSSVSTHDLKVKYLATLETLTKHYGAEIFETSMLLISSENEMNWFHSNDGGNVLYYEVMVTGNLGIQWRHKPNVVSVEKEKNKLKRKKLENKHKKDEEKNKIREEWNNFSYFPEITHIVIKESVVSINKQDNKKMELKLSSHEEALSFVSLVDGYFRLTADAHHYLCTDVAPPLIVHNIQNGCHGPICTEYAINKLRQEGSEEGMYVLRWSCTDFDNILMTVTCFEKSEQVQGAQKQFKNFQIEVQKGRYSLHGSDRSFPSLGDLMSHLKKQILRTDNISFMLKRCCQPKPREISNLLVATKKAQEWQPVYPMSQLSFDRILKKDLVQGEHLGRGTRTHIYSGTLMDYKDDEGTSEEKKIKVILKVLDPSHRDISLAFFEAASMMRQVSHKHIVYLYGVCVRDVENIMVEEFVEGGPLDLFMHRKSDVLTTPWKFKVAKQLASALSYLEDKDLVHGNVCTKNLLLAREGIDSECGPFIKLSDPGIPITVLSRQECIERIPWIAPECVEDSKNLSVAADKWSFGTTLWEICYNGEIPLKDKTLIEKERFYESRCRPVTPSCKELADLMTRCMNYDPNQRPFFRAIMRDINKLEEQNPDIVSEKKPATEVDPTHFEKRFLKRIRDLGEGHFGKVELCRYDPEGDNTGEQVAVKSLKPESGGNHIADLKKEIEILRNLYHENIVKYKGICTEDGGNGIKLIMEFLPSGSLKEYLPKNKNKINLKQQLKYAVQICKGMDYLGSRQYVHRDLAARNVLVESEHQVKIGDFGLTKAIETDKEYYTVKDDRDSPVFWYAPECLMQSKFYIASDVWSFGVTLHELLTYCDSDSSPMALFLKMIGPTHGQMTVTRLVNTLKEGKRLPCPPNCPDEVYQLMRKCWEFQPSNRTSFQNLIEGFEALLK

Regarding `CCc1cc(O)ccc1-c1ccc2c(-c3nc(C4=CCN(C[C@@H]5COCCN5)CC4)c[nH]3)n[nH]c2c1` [Compound 17, (R)-3-ethyl-4-(3-(4-(1-(morpholin-3-ylmethyl)-1,2,3,6-tetrahydropyridin-4-yl)-1H-imidazol-2-yl)-1H-indazol-6-yl)phenol], in data set [1], the “Lung Tissue AUC(0-24)” value is “B (B denotes a value between 50 and 100)”. Moreover, the “Lung Tissue:Plasma AUC ratio” value in data set [1] is “C (C denotes a ratio between 100 and 200)”. Moreover, the AUC(0-t) in data set [1] is 500 to 1000 ng·h/mL. Further, in data set [2], the IC50 is 3.16 to 10 nM. For the same compound, the Ki in data set [3] was 0.1 to 1 nM; in data set [4] it was 0.1 to 1 nM; in data set [5] it was 1 to 10 nM; in data set [6] it was 0.1 to 1 nM.

With `CCc1cc(O)ccc1-c1ccc2c(-c3nc(C4=CCCNC4)c[nH]3)n[nH]c2c1` [Compound 4, 3-ethyl-4-(3-(4-(1,2,5,6-tetrahydropyridin-3-yl)-1H-imidazol-2-yl)-1H-indazol-6-yl)phenol], the “Lung Tissue AUC(0-24)” value in data set [1] is “B (B denotes a value between 50 and 100)”. In addition, the “Lung Tissue:Plasma AUC ratio” value in data set [1] was “C (C denotes a ratio between 100 and 200)”. In addition, the AUC(0-t) in data set [1] lay within 500 to 1000 ng·h/mL. In addition, the IC50 in data set [2] was 3.16 to 10 nM. Moreover, the Ki in data set [3] is 0.1 to 1 nM; in data set [4], 0.1 to 1 nM; in data set [5], 1 to 10 nM; in data set [6], 0.1 to 1 nM.

Regarding `CCc1cc(O)ccc1-c1ccc2c(-c3nc(C4=CCN(C(C)C)CC4)c[nH]3)n[nH]c2c1F` [Example 22], the “Lung Tissue AUC(0-24)” value in data set [1] was “C (C denotes a value between 9 and 50)”. In addition, the “Lung Tissue:Plasma AUC ratio” value in data set [1] is “D (D denotes a ratio between 50 and 100)”. The AUC(0-t) in data set [1] is less than 500 ng·h/mL. Also, the IC50 in data set [2] was 3.16 to 10 nM. Also, the “JAK2 pKi” value in data set [3] is “A (A represents a pKi value ≥10 (Ki≤0.1 nM))”. In addition, the Ki in data set [4] was 0.1 to 1 nM; in data set [5], 1 to 10 nM; in data set [6], 0.1 to 1 nM.

On to `CCc1cc(O)ccc1-c1ccc2c(-c3nc(C4=CCCN(CCCO)C4)c[nH]3)n[nH]c2c1F` [Example 45], for which, in data set [1], the “Lung Tissue AUC(0-24)” value was “C (C denotes a value between 9 and 50)”; the “Lung Tissue:Plasma AUC ratio” value was “C (C denotes a ratio between 100 and 200)”; the AUC(0-t) is less than 500 ng·h/mL. For the same compound, the IC50 in data set [2] is 3.16 to 10 nM. Further, the “JAK2 pKi” value in data set [3] is given as “A (A represents a pKi value ≥10 (Ki≤0.1 nM))”. Further, the Ki in data set [4] was 0.1 to 1 nM. Besides, the Ki in data set [5] was 1 to 10 nM. Further, the Ki in data set [6] is 0.1 to 1 nM.

`CCc1cc(O)ccc1-c1ccc2c(-c3nc(C4=CCNC4)c[nH]3)n[nH]c2c1` [Compound 5, 4-(3-(4-(2,5-dihydro-1H-pyrrol-3-yl)-1H-imidazol-2-yl)-1H-indazol-6-yl)-3-ethylphenol]: in data set [1], the “Lung Tissue AUC(0-24)” value is “C (C denotes a value between 9 and 50)”; the “Lung Tissue:Plasma AUC ratio” value is “D (D denotes a ratio between 50 and 100)”; the AUC(0-t) was less than 500 ng·h/mL. Moreover, in data set [2], the IC50 was 3.16 to 10 nM. In addition, the Ki in data set [3] was 0.1 to 1 nM. For the same compound, the “JAK1 pKi” value in data set [4] is listed as “A (A represents a pKi value ≥10 (Ki≤0.1 nM))”. In addition, the Ki in data set [5] was 0.1 to 1 nM. Besides, in data set [6], the Ki was 0.1 to 1 nM.

In the case of `CCc1cc(O)ccc1-c1ccc2c(-c3nc(C4=C[C@H](COC)NC4)c[nH]3)n[nH]c2c1F` [Compound 9, (R)-3-ethyl-4-(7-fluoro-3-(4-(5-(methoxymethyl)-2,5-dihydro-1H-pyrrol-3-yl)-1H-imidazol-2-yl)-1H-indazol-6-yl)phenol], in data set [1], the “Lung Tissue AUC(0-24)” value is “C (C denotes a value between 9 and 50)”; the “Lung Tissue:Plasma AUC ratio” value is “C (C denotes a ratio between 100 and 200)”; the AUC(0-t) was less than 500 ng·h/mL. In data set [2], the IC50 is 3.16 to 10 nM. For the same compound, in data set [3], the Ki was 0.1 to 1 nM. In addition, the “JAK1 pKi” value in data set [4] is reported as “A (A represents a pKi value ≥10 (Ki≤0.1 nM))”. Besides, the Ki in data set [5] was 10 to 100 nM. Also, the Ki in data set [6] was 0.1 to 1 nM.
